Legend:
transglutaminase = details: Candi et al., 1995; cited from earlier work
PFHR-9 cells = assay: Collagen IV sulfilimine crosslink formation in PFHR-9 cell culture (NC1 hexamer, SDS-PAGE); type: cell-based, mouse; details: inhibitor present during cellular deposition of basement membrane; FIG. 2A: PHG 50 μM, MMI 1 mM, KI 10 mM, 3-AT 10 mM, BAPN 500 μM, putrescine 2.5 mM
Lysyl oxidase = biological target: T1, Lysyl oxidase (Bos taurus, UniProt P33072); details: Tang et al., 1983; cited from earlier work
T1 sequence (P33072 170-418): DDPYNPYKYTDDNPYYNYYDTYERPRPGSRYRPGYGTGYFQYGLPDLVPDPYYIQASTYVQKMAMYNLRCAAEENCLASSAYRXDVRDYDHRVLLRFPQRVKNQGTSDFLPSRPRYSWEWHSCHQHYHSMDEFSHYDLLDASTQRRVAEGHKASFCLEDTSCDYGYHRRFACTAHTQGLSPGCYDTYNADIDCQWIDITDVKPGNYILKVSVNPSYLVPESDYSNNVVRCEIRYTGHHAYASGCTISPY

[1] = HOBr versus HOCl, methionine to dehydromethionine; cited from earlier work
collagen IV NC1 hexamer [2] = biological target: T2, collagen IV NC1 hexamer (Mus musculus, UniProt P02463+P08122); assay: Hypohalous acid oxidation of purified uncrosslinked NC1 hexamer; details: for crosslinked dimeric subunits (percentage of dimeric subunit): 500 nM NC1 hexamer, 5 μM hypohalous acid, 30 min at 37° C. (FIG. 4A)
T2 sequence (P02463 1445-1669 limits assumed): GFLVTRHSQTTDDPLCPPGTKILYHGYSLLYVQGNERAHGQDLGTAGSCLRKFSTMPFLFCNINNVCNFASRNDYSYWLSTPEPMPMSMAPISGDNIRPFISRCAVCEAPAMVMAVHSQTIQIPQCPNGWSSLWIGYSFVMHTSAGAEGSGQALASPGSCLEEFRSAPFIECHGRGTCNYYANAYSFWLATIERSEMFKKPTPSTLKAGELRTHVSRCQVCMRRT
T2 sequence (P08122 1484-1707 limits assumed): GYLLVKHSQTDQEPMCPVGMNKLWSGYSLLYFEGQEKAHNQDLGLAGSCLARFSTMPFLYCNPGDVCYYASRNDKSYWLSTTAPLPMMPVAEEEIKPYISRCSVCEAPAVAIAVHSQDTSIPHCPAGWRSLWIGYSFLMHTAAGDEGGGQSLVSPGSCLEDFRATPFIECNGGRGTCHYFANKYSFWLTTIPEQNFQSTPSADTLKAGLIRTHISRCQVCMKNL
Experimental: (FIG. 4A) Five hundred nanomolar collagen IV NC1 hexamer (3 μM potential crosslinks) was incubated alone (control) or with 5 μM hypochlorous (HOCl) or hypobromous acid (HOBr) for 30 min at 37° C. […] (FIGS. 4B-D) 16 nM myeloperoxidase (MPO) (FIG. 4B), eosinophil peroxidase (EPO) (FIG. 4C) or lactoperoxidase (LPO) (FIG. 4D) were reacted with 500 nM NC1 hexamer (3 μM potential crosslinks) for varying time points in 1×PBS with or without 10 μM H2O2. In the case of LPO, all reactions proceeded for 60 min. Collagen IV-sulfilimine crosslink content was visualized after SDS-PAGE and Coomassie blue staining of the reactions. Each gel is representative of three independent experiments. PHG, phloroglucinol; MW, molecular weight.
FIGS. 9A-D. Chemical mechanism of sulfilimine formation within the NC1 hexamer. (FIG. 9A) Purified uncrosslinked NC1 hexamer (5 μM) was reacted for 5 minutes at 37° with the indicated amounts of hypohalous acids and analyzed by SDS-PAGE. […] Values represent mean±S.D. (n=3). (FIG. 7B) Uncrosslinked NC1 hexamer (1.3 μM) in Br-Free PBS was preoxidzed with indicated amounts of HOCl for 1 min at 37 C, followed by post-oxidation with the addition of 8 mol eq. HOBr (or HOCl as a control) which was reacted for an additional minute at 37° C., then quenched with 20 mM methionine. Gel is representative of two experiments (FIG. 9C) XIC analysis of the residual monomeric NC1 subunit following HOCl oxidation (10 mol eq) compared to input NC1 monomer after SDS-PAGE and in-gel trypsin digestion. ^16O addition to the methionine residues was confirmed by MS3 analysis. (FIG. 9D) Met93 oxidation pathway consistent with experimental data and the resultant enthalphic landscape for S═N bond formation within the NC1 hexamer.
(FIG. 15) Fifty micromolar of hypohalous oxidants were added to 5 μM uncrosslinked NC1 domains, and reacted for 5 minutes at 37° C. before quenching by adding L-methionine to 1 mM final concentration. […] Experiments were run in triplicate and analyzed by 12% non-reducing SDS-PAGE and ImageJ.
The efficiency of HOBr as a reagent was compared to other hypohalous acids, during a 5′ reaction with uncrosslinked hexamers containing 5 μM NC1 domains.
The inventors therefore tested the molar efficiency of oxidation of purified uncrosslinked NC1 hexamer with HOCl and HOBr (FIG. 9A). […] To test this, they pretreated uncrosslinked NC1 hexamer with varying concentrations of HOCl, then treated with HOBr. […] As an independent approach to testing the dead-end sulfoxide hypothesis, the inventors pretreated NC1 hexamer with escalating levels of H2O2, a reagent known to generate methionine sulfoxides (Liang et al., 2012). […] They next decided to directly visualize the peptide containing Met93, the S donor of the S═N bond, within the residual monomeric NC1 fraction after HOCl oxidation and compare its oxidation status to untreated NC1 hexamer.

[3] = Peroxidase activity of media from transfected cells (tetramethylbenzidine colorimetric assay); type: biochemical; details: media of transiently transfected HEK293T cells
Experimental: FIGS. 5A-D—Peroxidasin uniquely crosslinks native collagen IV networks. (FIG. 5A) Experimental design of ‘overlay’ experiments. PFHR-9 cells were grown in the presence of phloroglucinol (PHG; 50 μM) to deposit uncrosslinked collagen IV (Col IV) networks. The cells were then removed, and the basement membrane was extracted with 4 M guanidine (Gdn) to inactivate endogenous peroxidasin. Cells stably transfected with human peroxidasin (PXDN) or untransfected HEK293 cells (WT HEK) were plated on top of the PFHR9 basement membrane, which was subsequently analyzed for collagen IV crosslink content. (FIG. 5B) Collagen IV-sulfilimine bond formation in the indicated experimental conditions as shown by stained SDS-PAGE gel. Two (WT HEK cells) or three (PXDN, with or without PHG) out of five independent experiments are shown. MW, molecular weight. (FIG. 5C) Coomassie blue-stained gel of collagen IVNC1 hexamers isolated from uncrosslinked PFHR-9 basement membrane overlaid with HEK293T cells transiently transfected with human peroxidasin cDNA, mouse myeloperoxidase cDNA (MPO), mouse lactoperoxidase cDNA (LPO) or empty vector (Mock). (FIG. 5D) Media from PXDN, MPO, LPO and mock-transfected cells were assayed for peroxidase activity using a tetramethylbenzidine-based colorimetric assay. Activity was expressed relative to peroxidasin (A650 of given peroxidase divided by A650 for peroxidasin). […]

collagen IV NC1 hexamer [4] = assay: Purified peroxidases reacted with uncrosslinked NC1 hexamer and H2O2; type: biochemical, mouse; details: 16 nM enzyme, 500 nM NC1 hexamer, 10 μM H2O2, 1×PBS
Experimental: (§1) (FIG. 3A) SDS-PAGE of reactions consisting of 16 nM purified human peroxidasin (PXDN), 500 nM monomeric NC1 hexamer (3 μM potential crosslinks) and 10 μM H2O2 in 1×PBS. Control reactions without H2O2 or in the presence of the peroxidase inhibitor phloroglucinol (PHG; 50 μM) were also conducted. D represents crosslinked dimeric NC1 subunits, and M denotes uncrosslinked monomeric subunits. MW, molecular weight. (FIG. 3B) Coomassie blue-stained gel after SDS-PAGE of collagen IVNC1 hexamer is shown to illustrate relative amounts of sulfilimine-crosslinked dimeric (D) and uncrosslinked monomeric (M) subunits after incubation of uncrosslinked PFHR-9 basement membranes in varying buffer halide concentrations (Br— or Cl— as K+ salt) with or without 1 mM H2O2. (FIG. 3C) PXDN-mediated hypohalous acid (HOX) production expressed as nmol hypohalous acid generated per nmol enzyme per min, measured in 1×PBS plus 100 μM NaBr. Values represent mean±s.e.m. (n=3). (FIG. 3D) HOCl production measured directly in 1×PBS without added Br—. Values denote mean±s.e.m. (n=4). […] (FIG. 3E) HOX production, measured in nmol HOX generated per nmol enzyme per min for myeloperoxidase (MPO), eosinophil peroxidase (EPO) or LPO in 1×PBS plus 100 μM NaBr. Values represent mean±s.e.m. (n=3).
PHG, phloroglucinol; MW, molecular weight.
If peroxidasin uses hypohalous acids as intermediates to form sulfilimine bonds, these intermediates should recapitulate the reaction when directly added to purified, uncrosslinked collagen IV NC1 hexamer. […] Alternatively, other peroxidasesis provided to form reactive hypohalous acids.

[5] = Hypohalous acid production by peroxidases (taurine haloamine trapping); type: biochemical; details: 1×PBS plus 100 μM NaBr or without added Br—
Experimental: as §1
Hypohalous acids were trapped as stable taurine haloamines, which oxidize tetramethylbenzidine to yield a colorimetric measure of hypohalous acid concentration and production (Dypbukt et al., 2005).
Animal heme peroxidases, such as peroxidasin, myeloperoxidase, eosinophil peroxidase and lactoperoxidase, catalyze oxidative reactions using distinct halogenation and peroxidase cycles (Obinger, 2006). Both begin with hydrogen peroxide oxidation of the prosthetic heme iron to form an intermediate denoted compound I (Obinger, 2006). Compound I may oxidize halides into their respective hypohalous acids (or related oxidants in equilibrium), which may directly or indirectly halogenate susceptible moieties. Alternatively, compound I undergoes sequential reduction to form single electron-free radicals of energetically favorable substrates in the peroxidase cycle. Both pathways eventually regenerate reduced, native enzyme (Obinger, 2006). To determine whether peroxidasin forms sulfilimine bonds using a halogenation cycle, the inventors first tested whether peroxidasin crosslinks collagen IV in the absence of halides.

In the case of `NCCCCN` [putrescine], the Km (transglutaminase) is given as 26 to 847 µM and the “formation of collagen IV crosslinks” value (PFHR-9 cells) is given as “had no effect”.

For `N#CCCN` [β-aminopropionitrile], the IC50 (Lysyl oxidase) is given as 3 to 8 µM and the “formation of collagen IV crosslinks” value (PFHR-9 cells) is given as “had no effect”.

In the case of `OBr` [HOBr, hypobromous acid], the “effectiveness at forming a sulfilimine bond” value [1] is listed as “approximately twice as effective as HOCl”, the “crosslinked dimeric subunits (percentage of dimeric subunit)” value (collagen IV NC1 hexamer [2]) is listed as “increased significantly” and the “crosslinked dimeric subunits (percentage of dimeric subunit)” value (collagen IV NC1 hexamer [2]; listed as hypobromous acid) is listed as “yielded crosslinked dimeric subunits”. The “dimer formation, molar efficiency of oxidation” value (collagen IV NC1 hexamer [2]; 5 μM NC1 hexamer, 5 minutes at 37° (FIG. 9A)) was “efficiently formed dimers even at parity with NC1 concentrations”, the “efficiency versus other hypohalous acids in forming sulfilimine bonds” value (collagen IV NC1 hexamer [2]; 5 min reaction, 5 μM NC1 domains) was “superior to all other examined reagents” and the “S═N bond formation as share of total Met93 oxidized” value (collagen IV NC1 hexamer [2]; oxidation event 1 (OE1), S—Cl or S—Br halosulfonium intermediate) was 56.1%.

B1: myeloperoxidase: animal heme peroxidase used as comparator (protein, UniProt P05164 165-745, looked up)
Myeloperoxidase: VTCPEQDKYRTITGMCNNRRSPTLGASNRAFVRWLPAEYEDGFSLPYGWTPGVKRNGFPVALARAVSNEIVRFPTDQLTPDQERSLMFMQWGQLLDHDLDFTPEPAARASFVTGVNCETSCVQQPPCFPLKIPPNDPRIKNQADCIPFFRSCPACPGSNITIRNQINALTSFVDASMVYGSEEPLARNLRNMSNQLGLLAVNQRFQDNGRALLPFDNLHDDPCLLTNRSARIPCFLAGDTRSSEMPELTSMHTLLLREHNRLATELKSLNPRWDGERLYQEARKIVGAMVQIITYRDYLPLVLGPTAMRKYLPTYRSYNDSVDPRIANVFTNAFRYGHTLIQPFMFRLDNRYQPMEPNPRVPLSRVFFASWRVVLEGGIDPILRGLMATPAKLNRQNQIAVDEIRERLFEQVMRIGLDLPALNMQRSRDHGLPGYNAWRRFCGLPQPETVGQLGTVLRNLKLARKLMEQYGTPNNIDIWMGGVSEPLKRKGRVGPLLACIIGTQFRKLRDGDRFWWENEGVFSMQQRQALAQISLPRIICDNTGITTVSKNNIFMSNSYPRDFVNCSTLPALNLASWREAS
With B1 the “enzymatic activity relative to peroxidasin” value [3] was “at least 30 fold”, the “formation of sulfilimine crosslinks in NC1 hexamer” value (collagen IV NC1 hexamer [4]) was “formed sulfilimine crosslinks in collagen IV” and the hypohalous acid formation [5] was “preferentially formed hypochlorous acid”.
